In US11691992B2 (Anacor Pharmaceuticals, Inc., priority 2017, dated 2023):

Legend:
Assay type in all cases: cell-based
[1] = test system: T. cruzi Tulahuen strain C2C4 containing the β-galactosidase (Lac Z) gene in rat skeletal myoblasts (L-6 cells); assay: Trypanosoma cruzi C2C4 screening assay; details: L6, 96 h, read-out: SCYNEXIS IC50: I Org. Growth T. cruzi Tulahuen C2C4 Lac Z, 4 d [uM]
Method: Example 113: Trypanosoma cruzi C2C4 Screening Assay Procedure
Rat skeletal myoblasts (L-6 cells) were seeded in 96-well microtiter plates at 2×10^3 cells/well in 100 μL RPMI 1640 medium with 10% FBS and 2 mM L-glutamine. After 24 h the medium was removed and replaced by 100 μL per well containing 5×10^3 trypomastigote forms of T. cruzi Tulahuen strain C2C4 containing the β-galactosidase (Lac Z) gene (Buckner, et al., Antimicrobial Agents and Chemotherapy, 40: 2592-2597 (1996)). After 48 h the medium was removed from the wells and replaced by 100 μL fresh medium with or without a serial drug dilution of the seven 3-fold dilution steps covering a range from 90 to 0.123 μg/mL. After 96 h of incubation the plates were inspected under an inverted microscope to assure growth of the controls and sterility. The substrate (50 μL) chlorophenol red-β-D-galactopyranoside (CPRG, Roche Diagnostics, Ltd) in 0.25% Nonidet P-40/PBS was added to all wells and a color reaction developed within 2-6 h which was read photometrically at 540 nm. Data were transferred into the graphic program Softmax Pro (Molecular Devices), which calculated IC50 values.

[2] = test system: TdTomato-modified T. cruzi (CL strain) in Vero cells; assay: In vitro IC50 measurement of T. cruzi amastigote killing using TdTomato-modified T. cruzi (CL strain); details: Trypanosoma cruzi, 72 h, fluorescence, read-out: IC50: I Org. amastigote Growth T. cruzi CL TdTomato, 3 d
How it was run: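 Vero cells were infected with tdTomato-expressing CL-strain parasites and dosed at 5 uM–5 nM. Fluorescence (ex 544/em 612 nm) was read at day 0 and again after 72 h at 37 °C, with day 0 values subtracted. IC50 and IC90 came from nonlinear regression.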

[3] = test system: bloodstream-form trypanosome T. brucei brucei 427 strain; assay: Trypanosoma brucei brucei high-throughput screening assay (resazurin); details: 72 h, read-out: IC50: I Org. Growth T. brucei brucei SBRI 427, 3 d [uM]
Method: Example 105. Trypanosoma brucei brucei High-Throughput Screening Assay Procedure
All experiments were conducted with the bloodstream-form trypanosome T. brucei brucei 427 strain obtained from Seattle Biomedical Research Institute (Seattle, Wash.). Parasites were cultured in T-25 vented cap flasks and kept in humidified incubators at 37° C. and 5% CO2. The parasite culture media was complete HMI-9 medium containing 10% FBS, 10% Serum Plus medium and penicillin/streptomycin. To ensure log growth phase, trypanosomes were sub-cultured at appropriate dilutions every 2-3 days. Approximately 50 microliters of log phase cultures were diluted 1:10 in HMI-9 and 10 μL of the diluted culture was removed and counted using a hemocytometer to determine parasite concentration. Parasites were diluted by addition of an appropriate volume of HMI-9 to achieve a final parasite concentration of 2×10^5/mL. Compounds of the invention to be tested were serially diluted in DMSO and 0.5 μL added to 49.5 μL HMI-9 in triplicate 96-well plates using a Biomek NX liquid handler. Parasites from the diluted stock were added to each well (50 μL) using a Multidrop 384 dispenser to give a final concentration of 1.0×10^5/ml parasites in […] for DMSO. Trypanosomes were incubated with compounds for 72 hrs at 37° C. with 5% CO2. Resazurin (20 μL of 12.5 mg/ml stock) from Sigma-Aldrich was added to each well and plates were incubated for an additional 2-4 hrs. Assay plates were read using an EnVision plate reader at an excitation wavelength of 544 nm and emission of 590 nm. Triplicate data points were averaged to generate sigmoidal dose response curve and determine IC50 values using XLfit curve fitting software from IDBS (Guildford, UK).

[4] = test system: luciferase-expressing L. major parasites developing intracellularly inside RAW 264.7 macrophages; assay: Leishmania major intracellular amastigote assay in RAW 264.7 macrophages (luciferase); details: RAW264.7, 96 hours, read-out: IC50: I Org. intracellular amastigote Growth L. major, 4 d
How it was run: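 RAW 264.7 macrophages infected overnight with luciferase-expressing L. major promastigotes, washed of extracellular parasites, then exposed to two-fold compound dilutions (final 0.5-10,000 ng/ml) for 96 h at 37° C, 5% CO2. Luciferin luminescence after 30 min; IC50 by sigmoidal variable-slope regression.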

Structure (SMILES)	IC50 [1]	IC50 [2]	IC50 [3]	IC50 [4]
Cc1c(C(=O)Nc2ccc3c(c2)B(O)OC3)nnn1-c1ccc(F)cc1 [Example 86, 1-(4-fluorophenyl)-N-(1-hydroxy-1,3-dihydrobenzo[c][1,2]oxaborol-6-yl)-5-methyl-1H-1,2,3-triazole-4-carboxamide]	0.11 to 1 µM	600 to 1000 nM	0.075 to 0.15 µM	
O=C(Nc1ccc2c(c1)B(O)OC2)c1cn(-c2ccccc2)nn1 [Example 66, N-(1-hydroxy-1,3-dihydrobenzo[c][1,2]oxaborol-6-yl)-1-phenyl-1H-1,2,3-triazole-4-carboxamide]	0.06 to 0.1 µM	< 600 nM	0.075 to 0.15 µM	≤ 1000 nM
